Test results reported in patent US9156801B2, “2-substituted oleanolic acid derivative, method preparing for same, and application thereof” (HANGZHOU BENSHENG PHARMACEUTICAL CO., LTD., priority 2011, dated 2015).
≈ marks a conversion by molar mass, not a printed value.

What was measured:
Hep G2 cell line = assay: solid tumor cell growth inhibition, MTT; format: cell-based, human; details: Homo sapiens; for inhibition at 16 µg/mL: HepG2, 72 h, Hep G2, 16 μg/mL compound, 72 h, read-out: IR (cell proliferation inhibition rate); for IC50: HepG2, Hep G2, 72 h
Procedure: (§1) Hep-2 (laryngeal carcinoma), A549 (human lung cancer), CaES-17 (esophageal cancer cell), PC-3 (prostate cancer), CNE (nasopharyngeal carcinoma cell), and SK-OV-3 (ovarian cancer cell), all of which are purchased from China Center For Type Culture Collection; RKO (human colon adenocarcinoma cell), MGC 803 (human gastric cancer cell), MG63 (osteosarcoma) and U87 MG (malignant glioma cell), all of which are purchased from Fuxiang Bio-tech Co. Ltd., Shanghai, China; PANC-1 (pancreatic cancer), Hep G2 (human liver cancer cell), Becap37 (human breast cancer cell), and Hela (human cervical cancer cell), all of which are donated by Cancer Research Institute of Zhejiang University, China.
(§2) Obtaining 4000 well-growing human solid tumor cells and inoculating them into wells of a 96-well cell culture plate. The culture medium is DMEM High Glucose cell culture medium containing 10% fetal bovine serum. The plate is placed in a carbon dioxide cell incubator (5% CO2) at 37° C. for 24 hours. After adding the 2-substituted oleanolic acid derivatives of different concentrations and mixing uniformly, the plate is placed in a carbon dioxide cell incubator (5% CO2) at 37° C. and incubated for 72 hours. Then the relative number of the living cells is determined by MTT method. In this experiment, the cell proliferation inhibition rate in control group (not treated with any compound) is set as 0%.

PANC-1 cell line = assay: solid tumor cell growth inhibition, MTT; format: cell-based; details: Homo sapiens; for IC50: PANC-1, 72 h; for inhibition at 16 µg/mL: PANC-1, 16 μg/mL compound, 72 h, read-out: IR (cell proliferation inhibition rate)
Procedure: as §1, §2

PC-3 cell line = assay: solid tumor cell growth inhibition, MTT; format: cell-based; details: Homo sapiens; for IC50: PC-3, 72 h; for inhibition at 16 µg/mL: PC-3, 16 μg/mL compound, 72 h, read-out: IR (cell proliferation inhibition rate)
Procedure: as §1, §2

Hela cell line = assay: solid tumor cell growth inhibition, MTT; format: cell-based; details: Homo sapiens, 72 h; for IC50: HeLa; for inhibition at 16 µg/mL: Hela, 16 μg/mL compound, read-out: IR (cell proliferation inhibition rate)
Procedure: as §1, §2

CNE cell line = assay: solid tumor cell growth inhibition, MTT; format: cell-based; details: Homo sapiens, 72 h; for inhibition at 16 µg/mL: 16 μg/mL compound, read-out: IR (cell proliferation inhibition rate)
Procedure: as §1, §2

SK-OV-3 cell line = assay: solid tumor cell growth inhibition, MTT; format: cell-based; details: Homo sapiens; for IC50: SK-OV-3, 72 h; for inhibition at 16 µg/mL: SK-OV-3, 16 μg/mL compound, 72 h, read-out: IR (cell proliferation inhibition rate)
Procedure: as §1, §2

MGC 803 cell line = assay: solid tumor cell growth inhibition, MTT; format: cell-based; details: Homo sapiens; for inhibition at 16 µg/mL: MGC 803, 16 μg/mL compound, 72 h, read-out: IR (cell proliferation inhibition rate); for IC50: MGC 803, 72 h
Procedure: as §1, §2

Becap37 cell line = assay: solid tumor cell growth inhibition, MTT; format: cell-based; details: Homo sapiens; for inhibition at 16 µg/mL: Becap37, 16 μg/mL compound, 72 h, read-out: IR (cell proliferation inhibition rate); for IC50: Becap37, 72 h
Procedure: as §1, §2

MG-63 cell line = assay: solid tumor cell growth inhibition, MTT; format: cell-based; details: Homo sapiens; for IC50: MG-63, 72 h; for inhibition at 16 µg/mL: MG-63, 16 μg/mL compound, 72 h, read-out: IR (cell proliferation inhibition rate)
Procedure: as §1, §2

A549 cell line = assay: solid tumor cell growth inhibition, MTT; format: cell-based; details: Homo sapiens; for IC50: A549, 72 h; for inhibition at 16 µg/mL: A549, 16 μg/mL compound, 72 h, read-out: IR (cell proliferation inhibition rate)
Procedure: as §1, §2

RKO cell line = assay: solid tumor cell growth inhibition, MTT; format: cell-based; details: Homo sapiens, 72 h; for inhibition at 16 µg/mL: 16 μg/mL compound, read-out: IR (cell proliferation inhibition rate)
Procedure: as §1, §2

U87 MG cell line = assay: solid tumor cell growth inhibition, MTT; format: cell-based; details: Homo sapiens, U-87 MG, 72 h; for inhibition at 16 µg/mL: 16 μg/mL compound, read-out: IR (cell proliferation inhibition rate)
Procedure: as §1, §2

CaES-17 cell line = assay: solid tumor cell growth inhibition, MTT; format: cell-based; details: Homo sapiens, CaEs17; for inhibition at 16 µg/mL: CaES-17, 16 μg/mL compound, 72 h, read-out: IR (cell proliferation inhibition rate); for IC50: CaES-17, 72 h
Procedure: as §1, §2

Hep-2 cell line = assay: solid tumor cell growth inhibition, MTT; format: cell-based; details: Homo sapiens; for IC50: HEp-2, 72 h; for inhibition at 16 µg/mL: Hep-2, 16 μg/mL compound, 72 h, read-out: IR (cell proliferation inhibition rate)
Procedure: as §1, §2

RPMI8226 cell line = assay: multiple myeloma cell growth inhibition, MTT; format: cell-based; details: Homo sapiens, RPMI-8226; for inhibition at 16 µg/mL: RPMI8226, 16 μg/mL compound, 72 h, read-out: IR (cell proliferation inhibition rate); for IC50: RPMI8226, 72 h
Procedure: Multiple myeloma cell lines: RPMI8226 (multiple myeloma), purchased from Fuxiang Bio-tech Co. Ltd., Shanghai, China.
(§3) Obtaining 6000 well-growing cells as above and inoculating them into wells of a 96-well cell culture plate. The culture medium is the 1640 cell culture medium containing 10% fetal bovine serum. After adding the 2-substituted oleanolic acid derivatives of different concentrations and mixing uniformly, placing the plate in a carbon dioxide cell incubator (5% CO2) at 37° C. and incubated for 72 hours. Then the relative number of viable cells is determined by MTT method. In this experiment, cell proliferation inhibition rate in control group (not treated with any compound) is set as 0%.

K562/adr cell line = assay: leukemia cell growth inhibition, MTT; format: cell-based; details: Homo sapiens, 72 h; for IC50: K562/Adr; for inhibition at 16 µg/mL: K562/adr, 16 μg/mL compound, read-out: IR (cell proliferation inhibition rate)
Description: (§4) Leukemia cell lines: leukemia cell lines: K562/adr (drug-resistant, chronic myeloid leukemia, CML), NB4 (acute promyelocytic leukemia, AML), Kasumi-1 (acute myeloid leukemia M2 type, AML-M2), Jurkat (acute lymphoblastic leukemia, ALL), all of which are donated by Cancer Research Institute of Zhejiang University, China; and H9 (acute lymphoblastic leukemia, ALL), which is purchased from China Center for Type Culture Collection (CCTCC).
as §3, with “well-growing leukemia” for “well-growing”, “cells” for “cells as above”

NB4 cell line = assay: leukemia cell growth inhibition, MTT; format: cell-based; details: Homo sapiens, NB-4; for inhibition at 16 µg/mL: NB4, 16 μg/mL compound, 72 h, read-out: IR (cell proliferation inhibition rate); for IC50: NB4, 72 h
Description: as §4
as §3, with “well-growing leukemia” for “well-growing”, “cells” for “cells as above”

Kasumi-1 cell line = assay: leukemia cell growth inhibition, MTT; format: cell-based; details: Homo sapiens; for inhibition at 16 µg/mL: Kasumi-1, 16 μg/mL compound, 72 h, read-out: IR (cell proliferation inhibition rate); for IC50: Kasumi-1, 72 h
Description: as §4
as §3, with “well-growing leukemia” for “well-growing”, “cells” for “cells as above”

H9 cell line = assay: leukemia cell growth inhibition, MTT; format: cell-based; details: Homo sapiens; for IC50: H9, 72 h; for inhibition at 16 µg/mL: H9, 16 μg/mL compound, 72 h, read-out: IR (cell proliferation inhibition rate)
Description: as §4
as §3, with “well-growing leukemia” for “well-growing”, “cells” for “cells as above”

Jurkat cell line = assay: leukemia cell growth inhibition, MTT; format: cell-based; details: Homo sapiens, 72 h; for inhibition at 16 µg/mL: 16 μg/mL compound, read-out: IR (cell proliferation inhibition rate)
Description: as §4
as §3, with “well-growing leukemia” for “well-growing”, “cells” for “cells as above”

| Structure (SMILES) | inhibition at 16 µg/mL (Hep G2 cell line) [%] | IC50 (Hep G2 cell line) [µg/mL] | IC50 (PANC-1 cell line) [µg/mL] | inhibition at 16 µg/mL (PANC-1 cell line) [%] | IC50 (PC-3 cell line) [µg/mL] | inhibition at 16 µg/mL (PC-3 cell line) [%] | IC50 (Hela cell line) [µg/mL] | inhibition at 16 µg/mL (Hela cell line) [%] | inhibition at 16 µg/mL (CNE cell line) [%] | IC50 (CNE cell line) [µg/mL] | IC50 (SK-OV-3 cell line) [µg/mL] | inhibition at 16 µg/mL (SK-OV-3 cell line) [%] | inhibition at 16 µg/mL (MGC 803 cell line) [%] | IC50 (MGC 803 cell line) [µg/mL] | inhibition at 16 µg/mL (Becap37 cell line) [%] | IC50 (Becap37 cell line) [µg/mL] | IC50 (MG-63 cell line) [µg/mL] | inhibition at 16 µg/mL (MG-63 cell line) [%] | IC50 (A549 cell line) [µg/mL] | inhibition at 16 µg/mL (A549 cell line) [%] | other results |
| --- | --- | --- | --- | --- | --- | --- | --- | --- | --- | --- | --- | --- | --- | --- | --- | --- | --- | --- | --- | --- | --- |
| CCC(C)CNC(=O)C1C[C@@]2(C)C(CC[C@]3(C)C2CC=C2C4CC(C)(C)CC[C@]4(C(=O)OC)CC[C@]23C)C(C)(C)C1=O (some centres unmarked) [BS-OA-008] | 8.1 | > 16 | > 16 | -4.6 | > 16 | 12 | > 16 | 0.5 | 15.1 | > 16 | > 16 | 14.3 | -12.4 | > 16 | 2.3 | > 16 | > 16 | -12.1 | > 16 | 3.4 | inhibition at 16 µg/mL (RKO cell line): -18.6%; IC50 (RKO cell line): > 16 µg/mL; inhibition at 16 µg/mL (U87 MG cell line): 30.1%; IC50 (U87 MG cell line): > 16 µg/mL; inhibition at 16 µg/mL (CaES-17 cell line): -12.7%; IC50 (CaES-17 cell line): > 16 µg/mL; IC50 (Hep-2 cell line): > 16 µg/mL; inhibition at 16 µg/mL (Hep-2 cell line): 3.5%; inhibition at 16 µg/mL (RPMI8226 cell line): 30%; IC50 (RPMI8226 cell line): > 16 µg/mL; IC50 (K562/adr cell line): 8 µg/mL (≈ 13.7 µM); inhibition at 16 µg/mL (K562/adr cell line): 70.1%; inhibition at 16 µg/mL (NB4 cell line): 6.3%; IC50 (NB4 cell line): > 16 µg/mL; inhibition at 16 µg/mL (Kasumi-1 cell line): 6.7%; IC50 (Kasumi-1 cell line): > 16 µg/mL; IC50 (H9 cell line): > 16 µg/mL; inhibition at 16 µg/mL (H9 cell line): 39.8%; inhibition at 16 µg/mL (Jurkat cell line): -33.8%; IC50 (Jurkat cell line): > 16 µg/mL |
| CCN(CC)CCNC(=O)C1C[C@@]2(C)C(CC[C@]3(C)C2CC=C2C4CC(C)(C)CC[C@]4(C(=O)OC)CC[C@]23C)C(C)(C)C1=O (some centres unmarked) [BS-OA-012] | > 96 | 2.36 (≈ 3.86 µM) | 4.73 (≈ 7.74 µM) | 100 | 5.08 (≈ 8.32 µM) | 99.7 | 4.19 (≈ 6.86 µM) | 96.9 | 98.8 | 3.74 (≈ 6.12 µM) | 3.77 (≈ 6.17 µM) | 98.9 | 100 | 2.56 (≈ 4.19 µM) | 98.4 | 4.42 (≈ 7.23 µM) | 2.2 (≈ 3.6 µM) | 100 | 2.83 (≈ 4.63 µM) | 97.4 | inhibition at 16 µg/mL (RKO cell line): 97.6%; IC50 (RKO cell line): 2 µg/mL (≈ 3.27 µM); inhibition at 16 µg/mL (U87 MG cell line): 98.5%; IC50 (U87 MG cell line): 2.56 µg/mL (≈ 4.19 µM); inhibition at 16 µg/mL (CaES-17 cell line): 99.1%; IC50 (CaES-17 cell line): 1.91 µg/mL (≈ 3.13 µM); IC50 (Hep-2 cell line): 5.5 µg/mL (≈ 9 µM); inhibition at 16 µg/mL (Hep-2 cell line): 99.9%; inhibition at 16 µg/mL (RPMI8226 cell line): 99%; IC50 (RPMI8226 cell line): 0.74 µg/mL (≈ 1.21 µM); IC50 (K562/adr cell line): 1.09 µg/mL (≈ 1.78 µM); inhibition at 16 µg/mL (K562/adr cell line): 99%; inhibition at 16 µg/mL (NB4 cell line): 99.2%; IC50 (NB4 cell line): 2.79 µg/mL (≈ 4.57 µM); inhibition at 16 µg/mL (Kasumi-1 cell line): 99.3%; IC50 (Kasumi-1 cell line): 3.18 µg/mL (≈ 5.21 µM); IC50 (H9 cell line): 3.05 µg/mL (≈ 4.99 µM); inhibition at 16 µg/mL (H9 cell line): 95%; inhibition at 16 µg/mL (Jurkat cell line): 97%; IC50 (Jurkat cell line): 2.26 µg/mL (≈ 3.7 µM) |
